Structures can show the parent of a compound that is named as a salt.
Test system: BMDMs
Assay: Western blotting of signalling proteins in BMDMs
Assay type: cell-based, mouse
Details: for IFN-β-induced STAT1 and JAK1 phosphorylation / upstream kinases (AKT, JNK, ERK and p38), total and phospho levels: BMDMs pre-treated with DMSO, FHIN1 or DMF
Procedure: All compounds used DMSO as a vehicle except for 4-hydroxy tamoxifen (EtOH), NAC (PBS), and AOAA for tracing experiments (Media). LPS was used at a concentration of 100 ng/ml for indicated timepoints (2, 3, 4, 6, 8, 24, 48 h). FHIN1 (10 or 20 μM), MMF (50 or 100 μM), DMF (25 μM), AOAA (5 mM), oligomycin (10 μM), CCCP (50 μM) NAC (1 mM), and IMT1 (10 μM) pre-treatments were performed for 3 h prior the addition of LPS. Cells were treated with valinomycin (10 nM) 15 mins before LPS stimulation. Anti-CD210 or IgG control (10 μg/ml) antibodies were added to cells 1 h prior to LPS stimulation. Recombinant mouse IL-10 protein (100 ng/ml) was added to cells at the same time as LPS. Cells were treated with IFN-B1 (220 ng/ml) for 3 h. Cells were treated with C-178 (1 μM) 1 h prior to LPS stimulation or transfection with 2′3′-cGAMP (1.5 μg/ml) for 4 hrs to achieve cGAS-STING activation. Cells were treated with ODN 2088 (1 μM) for 1 hr prior to LPS stimulation or transfection with CPG ODN 1826 (1.5 μg/ml) to achieve TLR9 activation. 3 different timepoints of 4-hydroxy tamoxifen (TAM) (600 nM or 2 μM) or EtOH treatment were performed-these are specified in the individual figure legends. For ‘48 h’ treatments EtOH/TAM was added on day 5 of 6 during the BMDM differentiation protocol. On day 6 they were plated with EtOH/TAM (left overnight) and treated the following day. For ‘72 h’ treatments EtOH/TAM was added on day […] of 6 during the BMDM differentiation protocol. On day 6 they were plated with EtOH/TAM (left overnight) and treated the following day. For ‘96 h’ treatments EtOH/TAM was added on day […] of 6 during the BMDM differentiation protocol. On day 6 they were plated with EtOH/TAM and treated 2 days later.
Supernatant was removed from cells following stimulation and lysates were harvested in 30-50 μl lysis buffer (0.125 M Tris pH 6.8, 10% glycerol, 0.02% SDS, 5% DTT) Lysates were subsequently heated to 95° C. for 5 mins to denature proteins. SDS-PAGE was used to resolve proteins by molecular weight. Samples were boiled at 95° C. for 5 mins prior to loading into a 5% stacking gel. The percentage resolving gel depended on the molecular weight of the given protein. The Bio-Rad gel running system was used to resolve proteins and the Bio-Rad wet transfer system was used for the electrophoretic transfer of proteins onto PVDF membrane. Following transfer, the membrane was incubated in milk powder (5% in TBST) for 1 hr and subsequently incubated in primary antibody rolling overnight at 4° C. Primary antibodies targeting phospho-proteins were diluted in BSA (5% in TBST) as opposed to milk. The membrane was incubated for 1 hr with secondary antibody (diluted in 5% milk powder) at room temperature. Prior to visualisation, the membrane was immersed in WesternBright ECL Spray (Advansta). Protein visualisation took place on a ChemiDoc MPTM Imaging System (Bio-Rad), and both chemiluminescent and white light images were taken. Images were analysed using Image Lab 6.0.1 (Bio-Rad).

| Structure (SMILES) | LPS-induced p65 phosphorylation (BMDMs pre-treated) | IFN-β-induced STAT1 and JAK1 phosphorylation | upstream kinases (AKT, JNK, ERK and p38), total and phospho levels | LPS-induced IL-1β expression (IL-1β levels) (BMDMs pre-treated) | LPS-induced TRAF3 levels (BMDMs pre-treated, LPS 4 h) | TBK1 phosphorylation (BMDMs pre-treated, LPS 4 h) | STAT3 phosphorylation (BMDMs pre-treated, co-treated with recombinant IL-10 100 ng/ml, LPS 4 h) |
| --- | --- | --- | --- | --- | --- | --- | --- |
| COC(=O)/C=C/C(=O)OC [DMF, dimethyl fumarate] | modestly augment | limited | did not observe changes |  |  |  |  |
| CCOC(=O)[C@@]12CCCC=C1N(Cc1ccc(-c3ccccc3)cc1)C(=O)[C@H]2CC(=O)NC [FHIN1, Fumarate hydratase-IN-1] | modestly augment | limited | did not observe changes | not increased | not increased | increased | failed to impair |

Source: patent US20250018019A1, “TREATMENT OF INTERFERON DRIVEN INFLAMMATION” (The Provost, Fellows, Foundation Scholars and the other …, priority 2023, published 2025)
